Measured values reported in PubChem BioAssay (NCI).
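A five-concentration, 48-hour dose response in 96-well plates underlies each endpoint, interpolated linearly between surrounding concentrations. At the GI50, growth is halved. At the TGI there is no net growth.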

How the values were obtained:
Experiment in all cases: growth of human tumour cells (NCI), 48 h
HCT-15 colon = tested on: HCT-15 colon
BT-549 breast = tested on: BT-549 breast
SR leukemia = tested on: SR leukemia
T-47D breast = tested on: T-47D breast
HT29 colon = tested on: HT29 colon
A549 NSCLC = tested on: A549 NSCLC
HCT-116 colon = tested on: HCT-116 colon
SK-MEL-28 melanoma = tested on: SK-MEL-28 melanoma
SF-539 CNS = tested on: SF-539 CNS
MALME-3M melanoma = tested on: MALME-3M melanoma

SMILES | TGI (HCT-15 colon) [µM] | TGI (BT-549 breast) [µM] | TGI (SR leukemia) [µM] | TGI (T-47D breast) [µM] | TGI (HT29 colon) [µM] | TGI (A549 NSCLC) [µM] | TGI (HCT-116 colon) [µM] | TGI (SK-MEL-28 melanoma) [µM] | TGI (SF-539 CNS) [µM] | GI50 (A549 NSCLC) [µM] | GI50 (MALME-3M melanoma) [µM] | TGI (MALME-3M melanoma) [µM] | GI50 (HCT-116 colon) [µM] | GI50 (SF-539 CNS) [µM]
COc1ccc(-c2c(N)n(-c3cccc(C(=O)O)c3)c(=O)c3cc([N+](=O)[O-])ccc23)cc1 | > 100 | > 100 | > 100 | > 100 | > 100 | > 100 | > 100 | > 100 | > 100 |  |  |  |  | 
O=C(N/N=C/c1cc(Cl)cc(Cl)c1[O-])c1ccccc1O.O=C(N/N=C/c1cc(Cl)cc(Cl)c1[O-])c1ccccc1O.[Ni+2] | 1.92 |  | 1.46 |  | 3.4 | 3.33 | 1.5 | 2.09 | 1.16 | 0.402 | 0.759 | 2.36 | 0.439 | 0.297
Cc1cc(S(=O)(=O)O)c(NC(=O)C(=O)C2C=CCS2(=O)=O)cc1Cl (centres undefined) | > 100 |  | > 100 |  | > 100 | > 100 | > 100 | > 100 | > 100 |  |  | > 100 |  | 
O=c1c2cc(I)ccc2nc(Sc2ncccc2[N+](=O)[O-])n1Cc1ccccc1 | > 100 | 64 | > 100 | > 100 | > 100 | > 100 | > 100 | > 100 | > 100 |  |  |  |  | 
OC1(c2cc3ccccc3s2)CCCCC1 | > 100 | > 100 | > 100 |  | 54.5 | > 100 | > 100 | > 100 | > 100 |  |  |  |  | 
C/C(=N\NC(N)=S)C(CN(CC(C)C)CC(C)C)C(=O)Nc1ccc(C)cc1C (centres undefined) | > 100 |  | > 100 |  | > 100 | > 100 | > 100 | > 100 | > 100 |  |  | > 100 |  | 
COc1cccc(/C=N/[N-]C(N)=O)c1[O-].[Ni+2].[OH3+].c1cnc2c(c1)ccc1cccnc12 | > 100 |  | > 100 |  | > 100 | > 100 | > 100 | > 100 | > 100 |  |  | > 100 |  | 
CN(C)CCSC(=Nc1ccccc1)N1CCCCC1 | 30 |  | 97.3 |  | 33 | > 100 | 33.8 | 28 | 38.1 |  |  | 35.2 |  | 
Cc1ccc(N2CCc3c(C)c(C#N)c4nc5ccccc5n4c32)cc1 | > 100 | > 100 | > 100 |  | > 100 | > 100 | > 100 | > 100 | > 100 |  |  | > 100 |  | 
Cc1ccc(C(C2C(=O)N(C)C(=O)N(C)C2=O)C(F)(F)C(=O)N(C)C)cc1 (centres undefined) | > 100 | > 100 |  | > 100 |  | > 100 | > 100 | > 100 | > 100 |  |  | > 100 |  | 
O=c1cc(N2CCCC2)[nH]c(=O)n1-c1cccc(C(F)(F)F)c1 | > 100 | > 100 |  | > 100 | > 100 |  | > 100 |  | > 100 |  |  | > 100 |  | 
